11 compounds from patent publication US8962558B2, “Methods for reducing GnRH-positive tumor cell proliferation using the GnRH antagonist IN3” (priority 1997, dated 2015) can be followed below.

Assay [1] has as its system human glioblastoma cell lines U-87MG or U-373MG, Kaposi sarcoma cell lines KSY-1 or KS-SLK, malignant melanoma cell line MV3 or BLM, medulloblastoma cell line …. The assay can be described thus: Proliferation assay on cell cultures (Example 3). The note with it: for anti-proliferative effects in tumor cells: cell lines of Example 3 treated with the substance; for anti-proliferative effect compared with Cetrorelix only: given additionally as a second GnRH antagonist. The format is cell-based. The method, then:
A human cell line, such as the well known human glioblastoma cell lines U-87MG or U-373MG (Pinski et al., supra), or a human cell line such as the well known Kaposi sarcoma cell lines KSY-1 or KS-SLK (Parkash et al., 1996, New England Journal of Medicine, 335, 17, 1261-1269), or a human cell line such as the well known human malignant melanoma cell line MV3 or BLM (Goldbrunner, R. H., et al., 1996, Anticancer Research 16 (6B), 3679-87), or a human medulloblastoma cell line such as the well known cell line Daoy or D283 MED (Stockhammer et al., 1995, J. Neurosurgery, 83, 672-681), or human meningeoma cell cultures (Boyle-Wash, E., et al., 1995, Journal of Endocrinology, 145, 155-161), are cultured as previously described for the above-mentioned cell lines and then treated with a concentration of the GnRH agonist Triptorelin®, GnRH antagonist SB-75 (Cetrorelix®) or GnRH antagonist Ramorelix®. […]
In another embodiment, the above-mentioned cell lines are treated as described by Emons, G., et al., 1993, supra, and Irmer, G., 1995, supra, with a concentration of the GnRH peptide antagonist Ac-D-Nal(2)-D-4-ClPhe-D-Pal-Ser-1-MePal-D-IsopropylLys-Leu-IsopropylLys-Pro-D-AlaNH2 (also known as Ant 135-25; the Mepal portion is known as 1-Methyl-3-[3′-pyridyl]-alanine), Teverelix (also known as Antarelix®), Cetrorelix (also known as Cetrotide®), Abarelix (also known as Plenaxis®), D-63153 (also known as Ozarelix®), acyline, azaline B, antide (also known as Iturelix®), Degarelix (FE200486), Ganirelix, Nal-Glu, Orntide (also known as Ornirelix®), Elagolix, or with antagonist peptidomimetic ((2S)-2-[5-[2-(2-azabicyclo[2,2,2]oct-2-yl)-1,1-dimethyl-2-oxoethyl]-2-(3,5-dimethylphenyl)-1H-indol-3-yl]-N-(2-pyridin-4-ylethyl-)propan-1-amine (also known as “IN3”).
In another embodiment, the cell lines used above were each additionally treated with a second GnRH antagonist, namely one of the GnRH antagonists Cetrorelix®, Ant 135-25, IN3, degarelix, Antarelix®, Antide®, and Ramorelix® or alternatively with one of the GnRH antagonists that have been disclosed in U.S. Pat. Nos. 6,939,88, 6,200,957, 5,296,468, 4,851,385, 7,361,633, 7,288,517, WO/2009/106597 or PCT/EP2009/052326, U.S. Pat. Nos. 5,480,969, 5,198,533, or UK Patent GB 2 246782 B, wherein these additional treatment procedures were carried out in a manner similar to those reported in Emons et al., supra, using SB 75 (Cetrorelix®). […]

For assay [2], the system named is small cell lung carcinoma cell lines NCI-H1688, NCI-H1417, NCI-H1672, NCI-H1836, DMS-79, DM-553, DMS-114, SW-1271, NCI-H2227, NCI-HI1963, SHP-77 and H-69 AR. The assay can be described thus: Proliferation assay on small cell lung carcinoma cell lines (Example 3). The format is cell-based, human. The note with it: small cell lung carcinoma cell lines treated with the substance. As for the experimental part: In another embodiment, the small cell lung carcinoma cell lines NCI-H1688, NCI-H1417, NCI-H1672, NCI-H1836, DMS-79, DM-553, DMS-114, SW-1271, NCI-H2227, NCI-HI1963 and SHP-77 in addition to the multidrug-resistant small cell lung carcinoma cell line H-69 AR, are cultured as described above and then treated as described by Emons, G., et al., 1993, supra, and Irmer, G., 1995, supra, with various concentrations of the GnRH agonists (D-Lys6)-GnRH, Lutrelin, Histrelin, Nafarelin, Azagly-Nafarelin, Deslorelin, Cystorelin, Decapeptyl, Gonadorelin, GnRH, D-Lys(6)-GnRH II, Lamprey GnRH II, (D-Lys6)-Lamprey GnRH, (D-Lys6)-Lamprey GnRH II and Lamprey GnRH III.
In another embodiment, the small cell lung carcinoma cell lines NCI-H1688, NCI-H1417, NCI-H1672, NCI-H1836, DMS-79, DM-553, DMS-114, SW-1271, NCI-H2227, NCI-HI1963 and SHP-77 in addition to the multidrug-resistant small cell lung carcinoma cell line H-69 AR, are cultured as described above for the above-mentioned cell lines, and then treated as described by Emons, G., et al., 1993, supra, and Irmer, G., 1995, supra, with a concentration of the GnRH antagonist Cetrorelix (also known as Cetrotide®) or with a GnRH peptide antagonist Ac-D-Nal(2)-D-4-ClPhe-D-Pal-Ser-1-MePal-D-IsopropylLys-Leu-IsopropylLys-Pro-D-AlaNH2 wherein Mepal is 1-Methyl-3-[3′-pyridyl]-alanine or Ant 135-25 (also known as Ac-D-Nal(2)-D-4-Cl-Phe-D-Pal-Ser-1-MePal-D-IsopropylLys-Leu-IsopropylLys-Pro-D-AlaNH2), Teverelix (also known as Antarelix®), Cetrorelix (also known as Cetrotide®), Abarelix (also known as Plenaxis®), D-63153 (also known as Ozarelix®), acyline, azaline B, antide (also known as Iturelix®), Degarelix (FE200486), Ganirelix, Nal-Glu, Orntide (also known as Ornirelix®) or with antagonist peptidomimetic ((2S)-2-[5-[2-(2-azabicyclo[2,2,2]oct-2-yl)-1,1-dimethyl-2-oxoethyl]-2-(3,5-dimethylphenyl)-1H-indol-3-yl]-N-(2-pyridin-4-ylethyl-)propan-1-amine (also known as “IN3”).

Square brackets hold non-standard residues; d marks the D form. Peptide text beside a SMILES is read from it. * marks the point of attachment. dPhe(4-NHCONH2) = NC(=O)Nc1ccc(C[C@@H](N)C(=O)O)cc1; Dihydroorotyl(S) = O=C1C[C@@H](C(=O)*)NC(=O)N1; d(hArg(Et2)) = CCN=C(NCC)NCCCC[C@@H](N)C(=O)O; dPhe(4-NH2) = Nc1ccc(C[C@@H](N)C(=O)O)cc1; hArg(Et2) = CCN=C(NCC)NCCCC[C@H](N)C(=O)O; dPhe(4-Cl) = N[C@H](Cc1ccc(Cl)cc1)C(=O)O; Phe(4-NH2) = Nc1ccc(C[C@H](N)C(=O)O)cc1; d2Nal = N[C@H](Cc1ccc2ccccc2c1)C(=O)O; Lys(iPr) = CC(C)NCCCC[C@H](N)C(=O)O; NMeY = CN[C@@H](Cc1ccc(O)cc1)C(=O)O; d3Pal = N[C@H](Cc1cccnc1)C(=O)O

As for `CC(=O)N[C@H](Cc1ccc2ccccc2c1)C(=O)N[C@H](Cc1ccc(Cl)cc1)C(=O)N[C@H](Cc1cccnc1)C(=O)N[C@@H](CO)C(=O)N(C)[C@@H](Cc1ccc(O)cc1)C(=O)N[C@H](CC(N)=O)C(=O)N[C@@H](CC(C)C)C(=O)N[C@@H](CCCCNC(C)C)C(=O)N1CCC[C@H]1C(=O)N[C@H](C)C(N)=O` [Abarelix] (Ac-[d2Nal][dPhe(4-Cl)][d3Pal]S[NMeY][dN]L[Lys(iPr)]P[dA]-NH2), the “anti-proliferative effects in tumor cells” value (“anti-proliferative effects” for short) in assay [1] and in assay [2] was “Significant anti-proliferative effects” each time.
With `CC(C)C[C@H](NC(=O)[C@@H](Cc1c[nH]c2ccccc12)NC(=O)[C@H](Cc1ccc(O)cc1)NC(=O)[C@H](CO)NC(=O)[C@H](Cc1c[nH]c2ccccc12)NC(=O)[C@H](Cc1c[nH]cn1)NC(=O)[C@@H]1CCC(=O)N1)C(=O)N[C@@H](CCCNC(=N)N)C(=O)N1CCC[C@H]1C(=O)NCC(N)=O` [Decapeptyl], in assay [2], the “anti-proliferative effects” value is given as “Significant anti-proliferative effects”.
With `CC(=O)N[C@H](Cc1ccc2ccccc2c1)C(=O)N[C@H](Cc1ccc(Cl)cc1)C(=O)N[C@H](Cc1cccnc1)C(=O)N[C@@H](CO)C(=O)N[C@@H](Cc1ccc(NC(=O)[C@@H]2CC(=O)NC(=O)N2)cc1)C(=O)N[C@H](Cc1ccc(NC(N)=O)cc1)C(=O)N[C@@H](CC(C)C)C(=O)N[C@@H](CCCCNC(C)C)C(=O)N1CCC[C@H]1C(=O)N[C@H](C)C(N)=O` [Degarelix] (Ac-[d2Nal][dPhe(4-Cl)][d3Pal]S[Phe(4-NH2)](Dihydroorotyl(S))[dPhe(4-NHCONH2)]L[Lys(iPr)]P[dA]-NH2), in assay [1], the “anti-proliferative effects” value is recorded as “Significant anti-proliferative effects” and the “anti-proliferative effect compared with Cetrorelix only” value is on record as “significantly stronger anti-proliferative effect”. Further, the “anti-proliferative effects” value in assay [2] is “Significant anti-proliferative effects”.
For `CCNC(=O)[C@@H]1CCCN1C(=O)[C@H](CCCN=C(N)N)NC(=O)[C@H](CC(C)C)NC(=O)[C@@H](Cc1c[nH]c2ccccc12)NC(=O)[C@H](Cc1ccc(O)cc1)NC(=O)[C@H](CO)NC(=O)[C@H](Cc1c[nH]c2ccccc12)NC(=O)[C@H](Cc1cnc[nH]1)NC(=O)[C@@H]1CCC(=O)N1` [Deslorelin], the “anti-proliferative effects” value in assay [1] and in assay [2] was “Significant anti-proliferative effects” throughout.
With `COc1cccc(-c2c(C)n(Cc3c(F)cccc3C(F)(F)F)c(=O)n(C[C@H](NCCCC(=O)O)c3ccccc3)c2=O)c1F` [Elagolix, 4-[[(1R)-2-[5-(2-Fluoro-3-methoxyphenyl)-3-[[2-fluoro-6(trifluoromethyl)phenyl]methyl]-3,6-dihydro-4-methyl-2,6-dioxo-1(2H)-pyrimidinyl]-1-phenylethyl]amino]butanoic acid], the “anti-proliferative effects” value in assay [1] is “Significant anti-proliferative effects”.
In the case of `CCN=C(NCC)NCCCC[C@H](NC(=O)[C@H](CC(C)C)NC(=O)[C@@H](CCCCNC(=NCC)NCC)NC(=O)[C@H](Cc1ccc(O)cc1)NC(=O)[C@H](CO)NC(=O)[C@@H](Cc1cccnc1)NC(=O)[C@@H](Cc1ccc(Cl)cc1)NC(=O)[C@@H](Cc1ccc2ccccc2c1)NC(C)=O)C(=O)N1CCC[C@H]1C(=O)N[C@H](C)C(N)=O` [Ganirelix] (Ac-[d2Nal][dPhe(4-Cl)][d3Pal]SY[d(hArg(Et2))]L[hArg(Et2)]P[dA]-NH2), the “anti-proliferative effects” value in assay [1] and in assay [2] was “Significant anti-proliferative effects” each time.
With `CC(C)C[C@H](NC(=O)CNC(=O)[C@H](Cc1ccc(O)cc1)NC(=O)[C@H](CO)NC(=O)[C@H](Cc1c[nH]c2ccccc12)NC(=O)[C@H](Cc1cnc[nH]1)NC(=O)[C@@H]1CCC(=O)N1)C(=O)N[C@@H](CCCNC(=N)N)C(=O)N1CCC[C@H]1C(=O)NCC(N)=O` [Gonadorelin], the “anti-proliferative effects” value in assay [1] and in assay [2] was “Significant anti-proliferative effects” each time.
Take `CCNC(=O)[C@@H]1CCCN1C(=O)[C@H](CCCNC(=N)N)NC(=O)[C@H](CC(C)C)NC(=O)[C@@H](Cc1cn(Cc2ccccc2)cn1)NC(=O)[C@H](Cc1ccc(O)cc1)NC(=O)[C@H](CO)NC(=O)[C@H](Cc1c[nH]c2ccccc12)NC(=O)[C@H](Cc1cnc[nH]1)NC(=O)[C@@H]1CCC(=O)N1` [Histrelin]: the “anti-proliferative effects” value in assay [1] and in assay [2] was “Significant anti-proliferative effects” each time.
As to `Cc1cc(C)cc(-c2[nH]c3ccc(C(C)(C)C(=O)N4CC5CCC4CC5)cc3c2[C@H](C)CNCCc2ccncc2)c1` [IN3, (2S)-2-[5-[2-(2-azabicyclo[2,2,2]oct-2-yl)-1,1-dimethyl-2-oxoethyl]-2-(3,5-dimethylphenyl)-1H-indol-3-yl]-N-(2-pyridin-4-ylethyl-)propan-1-amine], in assay [1], the “anti-proliferative effects” value is “Significant anti-proliferative effects” and the “anti-proliferative effect compared with Cetrorelix only” value was “significantly stronger anti-proliferative effect”. In addition, the “anti-proliferative effects” value in assay [2] is recorded as “Significant anti-proliferative effects”.
In the case of `CCNC(=O)[C@@H]1CCCN1C(=O)[C@H](CCCN=C(N)N)NC(=O)[C@H](CC(C)C)N(C)C(=O)[C@@H](Cc1c[nH]c2ccccc12)NC(=O)[C@H](Cc1ccc(O)cc1)NC(=O)[C@H](CO)NC(=O)[C@H](Cc1c[nH]c2ccccc12)NC(=O)[C@H](Cc1cnc[nH]1)NC(=O)[C@@H]1CCC(=O)N1` [Lutrelin], the “anti-proliferative effects” value in assay [1] and in assay [2] was “Significant anti-proliferative effects” throughout.
For `CC(=O)Nc1ccc(C[C@H](NC(=O)[C@H](CO)NC(=O)[C@@H](Cc2cccnc2)NC(=O)[C@@H](Cc2ccc(Cl)cc2)NC(=O)[C@@H](Cc2ccc3ccccc3c2)NC(C)=O)C(=O)N[C@H](Cc2ccc(NC(C)=O)cc2)C(=O)N[C@@H](CC(C)C)C(=O)N[C@@H](CCCCNC(C)C)C(=O)N2CCC[C@H]2C(=O)N[C@H](C)C(N)=O)cc1` [acyline] (Ac-[d2Nal][dPhe(4-Cl)][d3Pal]S[Phe(4-NH2)](Ac)[dPhe(4-NH2)](Ac)L[Lys(iPr)]P[dA]-NH2), the “anti-proliferative effects” value in assay [1] and in assay [2] was “Significant anti-proliferative effects” each time.
